Test results: patent US20180110777A1, “METHOD FOR REGULATION OF TELOMERE LENGTH” (The Johns Hopkins University, priority 2015, published 2018)
Where “and” joins values, the source holds several entries; their conditions need not be identical. Equal values may be shown once. Entries after “also recorded” stand apart in the source; their conditions may differ.

Tests used:
SL13 cells = assay: ADDIT assay (addition of de novo initiated telomeres; modified STELA with PacBio sequencing or Southern blot); assay type: cell-based, mouse; settings: for de novo telomere addition / telomere elongation in ADDIT assay (in words): PacBio sequencing of STELA products, compared to controls; for percentage of CCS reads with de novo telomere addition (mean and SEM): SL13 cells pretreated prior to doxycycline, 10 μM KU55933, 3 μM Olaparib, 100 nM siATM, multiple experiments
From the text: To critically access the role of ATM, as well as other potential telomere length regulators, an assay was developed that measures telomere repeat addition in cells over 48 hr. CAST/EiJ mouse fibroblast cell line was engineered to (SL13) contain a conditional mTR allele and a modified chromosome 4 (chr4) with an internal 480 bp telomere ‘seed’ sequence followed by a unique I-Sce1 endonuclease cut site (FIG. 5 and see Experimental Procedures). The internal telomere ‘seed’ sequence can be conditionally exposed by I-Sce1 endonuclease cleavage (FIG. 1A) and then be elongated by telomerase in a manner similar to de novo telomere addition shown to occur in yeast (Diede and Gottschling, 1999, Cell 99, 723-733).
To better detect the telomere elongation, the single telomere length analysis (STELA) assay was modified (Baird et al., 2004, Hum Mol Genet 13, 1515-1524), to measure telomere length at the in vivo cut chr4. The linker, ‘telorette’, was ligated to the telomere and PCR amplified the telomere using the ‘teltail’ primer and an internal primer in the hygromycin resistance (HYG) sequence on the engineered chromosome (FIG. 1B). To determine the un-extended cut chromosome length in vitro, a different linker was designed, ‘IScerette’, which anneals to the 4-nt 3′ overhang created by the I-Sce1 endonuclease (FIG. 1B). PCR using the forward primers, F1 or F2, and the teltail generated products of predicted size on a Southern blot (data not shown).
To further verify telomere addition had occurred, the PCR products were sequenced with Pacific Biosciences (PacBio®) sequencing. PacBio® produces long sequence reads that allowed us to determine telomere length. While sequencing errors, predominantly point insertions and deletions, occurred as expected, the telomere repeats were easily recognizable. To assure products were full length, the PacBio® reads were filtered to examine only those that had the unique HYG sequence followed by the seed telomere repeat sequence and also had the ‘teltail’ primer sequence (FIG. 6). […] The I-Sce1 site is shown boxed (FIG. 1C). Three regions of variant telomere repeats were noted, evident as darker stripes in the aligned reads, that were present in the original SL13 clone, and served as useful sequence reference points (FIG. 1C). If there were degradation past these variants and then new TTAGGG (SEQ ID NO: 100) repeat synthesis in vivo, these landmarks would be removed.
The sequence length distribution in the ADDIT assay represents telomere elongation, incomplete telomere replication and in vivo end resection (as well as PacBio® sequencing errors).
Cell lines were grown in DMEM (Gibco) supplemented with 1% Penicillin/Streptomycin/Glutamine (PSG) and 10% heat inactivated FBS (Invitrogen). SL13 cells were grown in DMEM (Gibco) supplemented with 1% PSG and 10% Tet system approved FBS (Clontech, #631107). Cells were treated with ATM inhibitor KU55933 (R&D Systems, #3544), ATR inhibitor VE821 (Selleckchem, #S8007) or PARP1 inhibitor Olaparib (Selleckchem, #1060) at indicated concentrations or DMSO as a control. For the ADDIT assay, SL13 cells were treated with final concentration 2 μg/ml of doxycycline for typically 48 hr or as indicated.
The original STELA protocol used for human cells (Baird et al., 2004, Hum Mol Genet 13, 1515-1524) was modified to measure telomere lengths on the cut end of chr4 in SL13 cells. Briefly, genomic DNA was extracted using Puregene Core Kit A™ (Qiagen). 4 μg of genomic DNA was digested with Sph1 (NEB) and later diluted to 10 ng/μl in water. For the in vitro IScerette sample, genomic DNA was digested with SphI and I-SceI (NEB) prior to ligation. The ligation was carried out at 35° C. for at least 12 hr in a volume of 10 μl containing 10 ng of digested genomic DNA, 0.9 μM of telorette linkers or IScerette linker and 0.5 U of T4 DNA ligase (NEB) in 1×T4 ligation buffer. […]

ATM = assay: Western blot of ATM signaling (phospho-Kap1, phospho-ATM); assay type: cell-based, mouse
From the text: To probe the role of ATM, the ADDIT assay was used in cells treated with the ATM specific inhibitor KU55933 (as described in Hickson et al., 2004, Cancer Research 64, 9152-9159) or with siRNA to ATM. To confirm the inhibition of ATM, the phosphorylation level was examined of the ATM substrate Kap1 and, as a control, an ATR kinase substrate Chk1 by western blot. Cultured cells were pretreated with KU55933, siA™ or DMSO control and then exposed to camptothecin (CPT), a DNA damaging agent.
To further probe the role of ATM in telomere length, ATM was activated in cultured cells. […] PARP is an essential enzyme involved in recognition and repair of DNA breaks. […] Similar to wild-type control, the most common class of telomere addition was Class 3 that creates the most complementarity between the 3′ end and the mTR sequence (Table 3). To examine whether this stimulation of telomere elongation acts through ATM, epistasis was examined by treating cells with both Olaparib and KU55933.
To detect phospho-proteins, 1× lysis buffer made of final concentration of 1×RIPA™ (Cell Signaling, #98016S), 1× protease inhibitor cocktail, 1× PhosSTOP™ (Roche, 4906845001) was added directly to cells on the dish after washing with PBS. Protein concentration was measured with a BCA protein assay kit (Thermo, #23227). Typically 10 μg of protein from each sample was applied to SDS-PAGE gels (Biorad, #456-1084) and transferred to nitrocellulose membranes in transfer buffer. After blocking with the Odyssey™ blocking buffer (LI-COR, #927-40000), membranes were incubated at 4° C. overnight or 1 hr at RT with the following primary antibodies: anti-phospho-Kap1 (Bethyl Lab, #A300-767A); anti-phospho-CHK1 (Cell Signaling, #2348S); anti-phospho-ATM (Millipore, #05-740); anti-HA (Santa Cruz, #sc-7392); anti-Actin (Santa Cruz, #sc-1616); anti-PAR (Trevigen, #4335-MC-100). […] Band intensities were quantified using the Odyssey™ software (LI-COR) and normalized to Actin levels. […]

Row | Compound | de novo telomere addition / telomere elongation in ADDIT assay (in words) (SL13 cells) | percentage of CCS reads with de novo telomere addition (mean and SEM) (SL13 cells) | Kap1-S824 phosphorylation (ATM; cells pretreated, then exposed to camptothecin (CPT)) | phosphorylation of ATM-S1981 (ATM; Olaparib-treated cells) | Kap1 phosphorylation in response to PARP1 inhibition (ATM; compared to DMSO-treated control cells)
1 | O=c1cc(-c2cccc3c2Sc2ccccc2S3)oc(N2CCOCC2)c1 [KU55933] | significantly fewer telomere elongation products | 12.45±1.16% | blocked Kap1 phosphorylation |  | 
2 | O=C(c1cc(Cc2n[nH]c(=O)c3ccccc23)ccc1F)N1CCN(C(=O)C2CC2)CC1 [Olaparib] | small increase in telomere elongation | 26% and 26.1±1.19% |  | increased phosphorylation of ATM-S1981 | increased ATM phosphorylation of Kap1; also recorded: increased level of Kap1 phosphorylation
